Here are results for one molecule from paper PMC11494886, “Discovery and design of molecular glue enhancers of CDK12–DDB1 interactions for targeted degradation of cyclin K” (RSC Chemical Biology, 2024).

Experiment [1] deals with T1, Cdk12/CycK and DDB1ΔB (Homo sapiens, UniProt Q16531+Q9NYV4, DEL396-705).
T1 construct: the Cdk12 (714–1063)/CycK (1–267) complex and the DDB1ΔB protein; made in house; host or cells: Sf9 insect cells (MultiBacTurbo)
The experiment can be described thus: Dynamic light scattering of SEC peak fractions. Conditions: SEC peak middle fractions, vs negative controls. The format is binding. As to the method: To evaluate particle size distribution in liquid solution, dynamic light scattering was employed. Specifically, 10 μL fractions from the central region of peaks obtained in analytical size exclusion chromatography runs were analyzed. This analysis was performed using a DynaPro NanoStar 672 (Wyatt Technology) in a disposable DLS MicroCuvette (Wyatt Technology), while maintaining a constant temperature of 25 °C. Each measurement was conducted with an acquisition time of 3 s, and each data point depicted in the Results section represents the average of 20 individual DLS measurements. The hydrodynamic radius of the protein samples was determined using the processing and analysis software DYNAMICS.

In experiment [2] the target is T1, Cdk12/CycK and DDB1ΔB. The experiment can be described thus: Analytical size-exclusion chromatography of DDB1ΔB and Cdk12/CycK. Type of experiment: binding. Conditions: 20 μM proteins, 60 μM compound, vs DMSO and THZ531. How it is done:
Analytical size-exclusion chromatography was employed to investigate compound-induced protein–protein interactions between the heterodimeric Cdk12 (714–1063)/CycK (1–267) complex and the RING E3 ligase-associated adaptor protein DDB1ΔB. The analysis was conducted on an Agilent 1260 Infinity II HPLC system (Agilent Technologies), coupled with a Superdex 200 Increase 3.2/300 column (Cytiva), pre-equilibrated in Cdk12 SEC buffer (20 mM Hepes pH 7.8, 400 mM NaCl, 1 mM TCEP) supplemented with 1 g L^−1 carboxymethyl-dextran. Purified proteins, combined in equimolar ratios (20 μM Cdk12/CycK and DDB1ΔB, respectively) were supplemented with 3-fold molar excess of small molecular compounds. The resulting protein mixtures were diluted to a final volume of 25 μL using the kinases SEC-buffer ensuring a final DMSO concentration of 2%, followed by an incubation period of 10 min. Upon injection into the analytical system, the chromatography was conducted at a controlled flow rate of 0.05 mL min^−1, with protein absorbance monitored at 280 nm wavelength. Peak fractions were collected drop by drop and subsequently subjected to analysis via dynamic light scattering (DLS) to assess their size distribution, along with SDS-PAGE analysis to determine the composition of the protein complex.

The subject of experiment [3] is cyclin K. The experiment can be described thus: Immunoblot of cyclin K levels in MDA-MB-231 cells. Type of experiment: cell-based, human. Conditions: SR-4835 500 nM, SR-4784 1-2 μM 2 hours, SR-4784-PAP 2 μM 2 hours. As to the method:
THZ531 was used as a negative control as it is known to make a covalent bond with Cys1039 in a C-terminal extension of the kinase domain, thereby preventing this helix-loop-helix (HLH)-like fold from binding in a cleft between the DDB1 BPA and BPC domains (Fig. 1B, right panels). […] An immunofluorescence-based assay developed for visualizing loss of nuclear cyclin K also confirmed the above observations (Fig. 1H and Fig. S1, ESI ^†).
Total cell lysates were prepared using RIPA lysis buffer (Millipore Sigma) supplemented with protease and phosphatase inhibitors (Roche). Protein concentrations were estimated using the BCA protein assay kit (Pierce, Thermo Fisher Scientific). Equal amounts of proteins were separated using NuPAGE 4–12% Bis-Tris gels (Thermo Fisher Scientific). For CLICK chemistry pulldown experiments, proteins in the eluates were resolved using 3–8% Tris–acetate gels (Thermo Fisher Scientific). Proteins were transferred to nitrocellulose membranes using NuPAGE transfer buffer (Thermo Fisher Scientific). Membranes were blocked in LI-COR blocking buffer for 1 hour at room temperature and then probed with primary antibodies diluted in the same blocking buffer overnight at 4 °C. To detect the primary antibodies, membranes were incubated with IR-680 or IR-800 conjugated secondary antibodies (LI-COR) diluted in LI-COR blocking buffer at room temperature for 1 hour. Washes with 0.01% Tween-phosphate buffer were performed after primary and secondary antibody incubation steps. Signals from the membrane were recorded by scanning on a LI-COR Odyssey imager. Bands were quantified using Image Studio Lite (LI-COR Biosciences) or the ImageJ program.
To visualize the degradation of cyclin K, total cell lysates were subjected to SDS-PAGE and western blotting.

T1 sequence (Q9NYV4 714-1063, stated change not applied): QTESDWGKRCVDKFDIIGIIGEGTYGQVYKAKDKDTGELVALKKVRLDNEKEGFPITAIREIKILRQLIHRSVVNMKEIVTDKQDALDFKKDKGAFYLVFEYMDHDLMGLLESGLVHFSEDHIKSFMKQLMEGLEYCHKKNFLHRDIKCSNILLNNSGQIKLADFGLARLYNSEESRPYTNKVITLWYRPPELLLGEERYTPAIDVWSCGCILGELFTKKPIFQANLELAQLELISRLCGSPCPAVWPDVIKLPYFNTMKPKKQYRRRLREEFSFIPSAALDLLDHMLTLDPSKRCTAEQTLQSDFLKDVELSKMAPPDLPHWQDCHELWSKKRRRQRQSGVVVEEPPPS
T1 sequence (O75909 1-267 partner limits assumed): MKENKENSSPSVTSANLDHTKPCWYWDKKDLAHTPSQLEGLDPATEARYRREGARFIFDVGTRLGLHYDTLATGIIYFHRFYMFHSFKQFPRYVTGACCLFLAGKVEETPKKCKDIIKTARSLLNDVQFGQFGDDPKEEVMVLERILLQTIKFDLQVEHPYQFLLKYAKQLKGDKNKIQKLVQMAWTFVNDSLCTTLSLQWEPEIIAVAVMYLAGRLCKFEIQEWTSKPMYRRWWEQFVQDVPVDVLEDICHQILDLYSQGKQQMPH
T1 sequence (Q16531 with tags, fused parts or gaps DEL396-705): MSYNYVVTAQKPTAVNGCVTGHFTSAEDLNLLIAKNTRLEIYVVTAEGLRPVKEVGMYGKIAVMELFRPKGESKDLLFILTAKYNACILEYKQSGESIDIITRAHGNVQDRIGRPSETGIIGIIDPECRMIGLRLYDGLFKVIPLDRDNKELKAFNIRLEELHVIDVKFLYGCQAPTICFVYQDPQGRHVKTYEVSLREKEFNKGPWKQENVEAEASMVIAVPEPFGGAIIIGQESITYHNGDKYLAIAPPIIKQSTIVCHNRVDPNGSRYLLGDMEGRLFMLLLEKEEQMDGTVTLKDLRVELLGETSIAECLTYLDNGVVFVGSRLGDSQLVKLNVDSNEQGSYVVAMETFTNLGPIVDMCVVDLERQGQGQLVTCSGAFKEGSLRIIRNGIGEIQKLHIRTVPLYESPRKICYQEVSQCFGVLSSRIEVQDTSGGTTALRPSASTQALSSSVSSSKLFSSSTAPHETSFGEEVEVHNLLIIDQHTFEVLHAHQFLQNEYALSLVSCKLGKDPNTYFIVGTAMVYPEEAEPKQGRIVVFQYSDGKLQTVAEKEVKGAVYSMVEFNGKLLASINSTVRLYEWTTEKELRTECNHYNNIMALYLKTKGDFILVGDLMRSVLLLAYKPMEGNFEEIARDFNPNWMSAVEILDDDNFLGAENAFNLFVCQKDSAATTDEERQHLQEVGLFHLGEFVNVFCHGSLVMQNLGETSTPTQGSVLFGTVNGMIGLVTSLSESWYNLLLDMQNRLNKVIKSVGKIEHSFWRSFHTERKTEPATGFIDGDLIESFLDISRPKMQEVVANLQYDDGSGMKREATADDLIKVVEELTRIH

On to `Cn1cc(-n2cnc3c(NCc4nc5cc(Cl)c(Cl)cc5[nH]4)nc(N4CCOCC4)nc32)cn1` [SR-4835], for which the “hydrodynamic radius (DLS)” value in experiment [1] is recorded as “significantly increased”. Besides, the “retention time in analytical SEC (ternary complex formation)” value in experiment [2] is recorded as “reduced retention times”. Moreover, the “cyclin K degradation (immunoblot)” value in experiment [3] is given as “rapidly degrades cyclin K”.
